Data reported in ChEMBL document CHEMBL5257018, “Novel Strategies for the Treatment of Pseudomonas aeruginosa Infections” (J Med Chem, 2016).
pIC50, pKd, pKi: −log10 of the molar value. ≈ marks a conversion by molar mass, not a printed value. Numbered stars: 1 amine (or outer) side, 2 acyl side, 3 side chain; on linkers, the order of the positions; unused ones are H or OH. Bridge positions count the residues as written; N and C are the ends. Square brackets hold non-standard residues; d marks the D form. Side chains are listed from the residue outwards. Peptide text beside a SMILES is read from it. I, II: the chains in the order shown. * marks the point of attachment. Trp(4-OMe) = COc1cccc2[nH]cc(C[C@H](N)C(=O)O)c12; GlyΨ(Thz) = O=C(c1csc(CN[*:1])n1)[*:2]; Gly(octyl) = CCCCCCCC[C@H](N)C(=O)O; Heptanoyl(6-Me) = CC(C)CCCCC(=O)*; X1 = CC[C@@H](C)CCCCC(=O)*; Octanoyl = CCCCCCCC(=O)*; Dab = NCC[C@H](N)C(=O)O; Dha = C=C(N)C(=O)O; Sar = CNCC(=O)O

Molecular target: Elastase (Pseudomonas aeruginosa (strain ATCC 15692 / PAO1 / 1C / PRS 101 / LMG12228), UniProt P14756)
Sequence (P14756 whole entry): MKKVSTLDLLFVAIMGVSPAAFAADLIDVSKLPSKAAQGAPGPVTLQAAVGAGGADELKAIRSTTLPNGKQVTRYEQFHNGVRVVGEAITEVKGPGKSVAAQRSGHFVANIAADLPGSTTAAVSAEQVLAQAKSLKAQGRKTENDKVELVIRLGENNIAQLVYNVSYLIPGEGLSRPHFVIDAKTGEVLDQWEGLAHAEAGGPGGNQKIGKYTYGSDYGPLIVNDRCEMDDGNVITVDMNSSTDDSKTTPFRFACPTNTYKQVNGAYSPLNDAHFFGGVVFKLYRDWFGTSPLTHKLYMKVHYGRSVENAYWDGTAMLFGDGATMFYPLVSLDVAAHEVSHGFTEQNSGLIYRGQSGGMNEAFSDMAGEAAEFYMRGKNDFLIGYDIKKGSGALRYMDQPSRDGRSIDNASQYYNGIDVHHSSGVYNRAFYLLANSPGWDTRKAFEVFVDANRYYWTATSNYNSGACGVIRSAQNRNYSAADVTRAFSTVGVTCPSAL
Test: Inhibition of Pseudomonas aeruginosa LasB elastase using aminobenzoyl-Ala-Gly-Leu-Ala-p-nitro-benzyl-amide as substrate b microtiter-based fluorimetric assay
Details: not given

Compound	pIC50	pKi
CC(=O)SCC(=O)Nc1cc(C)c(Br)cc1Cl	5.22	
Cc1c(O)c(=S)ccn1Cc1ccc(-c2ccccc2)cc1	5.52	
CC(C)C[C@H](NP(=O)(O)O[C@@H]1O[C@@H](C)[C@H](O)[C@@H](O)[C@H]1O)C(=O)N[C@@H](Cc1c[nH]c2ccccc12)C(=O)O [PHOSPHORAMIDON]		7.24
O=C(Nc1ccc(O)c(=O)cc1)Nc1cccc2ccccc12	6.00	

System: Pseudomonas aeruginosa
Test: Antibacterial activity against Pseudomonas aeruginosa PAO1 assessed as reduction in bacterial growth
Format: functional
Details: not given

Compound	MIC
CC(=O)Oc1cccc(C(=O)NCCCC(CCCNC(=O)c2cccc(OC(C)=O)c2OC(C)=O)(CCCNC(=O)c2cccc(OC(C)=O)c2OC(C)=O)NC(=O)CCC(=O)N[C@@H](C(=O)N[C@@H]2C(=O)N3[C@@H]2SC(C)(C)[C@@H]3C(=O)O)c2ccccc2)c1OC(C)=O	> 200 µM
CC(=O)Oc1cccc(C(=O)NCCCC(CCCNC(=O)c2cccc(OC(C)=O)c2OC(C)=O)(CCCNC(=O)c2cccc(OC(C)=O)c2OC(C)=O)NC(=O)CCC(=O)N[C@@H](C(=O)N[C@@H]2C(=O)N3[C@@H]2SC(C)(C)[C@@H]3C(=O)O)c2ccc(O)cc2)c1OC(C)=O	> 200 µM

System: not listed separately
Test: Antagonist activity at Pseudomonas aeruginosa MvfR
Details: not given

Compound	pIC50
Nc1nnc(-c2cccc(C(F)(F)F)c2)o1	6.60
O=C(CSc1nc2cc([N+](=O)[O-])ccc2[nH]1)Nc1ccc(Oc2ccccc2)cc1	6.52
CCCCCCCCCc1nc2cc(Cl)ccc2c(=O)n1N	7.30
CC(C)(C)c1ccc(C(=O)NO)cc1	7.06

Molecular target: T1, Transcriptional activator protein LasR (Pseudomonas aeruginosa (strain ATCC 15692 / PAO1 / 1C / PRS 101 / LMG12228)) (UniProt P25084)
T1 sequence (whole entry): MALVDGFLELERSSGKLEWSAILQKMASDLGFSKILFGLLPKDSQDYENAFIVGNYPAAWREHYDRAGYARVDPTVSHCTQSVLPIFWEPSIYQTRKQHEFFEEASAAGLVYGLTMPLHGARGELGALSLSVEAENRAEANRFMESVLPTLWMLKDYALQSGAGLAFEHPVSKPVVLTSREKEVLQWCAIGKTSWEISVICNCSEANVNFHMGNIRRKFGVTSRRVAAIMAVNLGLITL
Test: Inhibition of Pseudomonas aeruginosa PAO1 LasR at 200 uM relative to control
Details: not given

Compound	inhibition
O=C(CCCc1c[nH]c2ccccc12)N[C@H]1CCOC1=O	66%
O=C(Cc1ccc(Br)cc1)N[C@H]1CCOC1=O	77%

System: Pseudomonas aeruginosa
Test: Antimicrobial activity against polymyxin resistant Pseudomonas aeruginosa assessed as reduction in bacterial growth
Format: functional
Details: not given

Compound	MIC
CC[C@@H](C)CCCCC(=O)N[C@@H](CCN)C(=O)N[C@H](C(=O)N[C@@H](CCN)C(=O)N[C@H]1CCNC(=O)[C@H]([C@@H](C)O)NC(=O)[C@H](CCN)NC(=O)[C@H](CCN)NC(=O)[C@H](CC(C)C)NC(=O)[C@@H](Cc2ccccc2)NC(=O)[C@H](CCN)NC1=O)[C@@H](C)O (X1-[Dab]T[Dab][Dab][Dab][dF]L[Dab][Dab]T; lactam 4-C)	< 2 µg/mL
CCCCCCCC[C@@H]1NC(=O)[C@@H](Cc2ccccc2)NC(=O)[C@H](CCN)NC(=O)[C@@H](NC(=O)[C@H](CCN)NC(=O)[C@@H](NC(=O)[C@H](CCN)NC(=O)CCCCCCC)[C@@H](C)O)CCNC(=O)[C@H]([C@@H](C)O)NC(=O)[C@H](CCN)NC(=O)[C@H](CCN)NC1=O (Octanoyl-[Dab]T[Dab][Dab][Dab][dF][Gly(octyl)][Dab][Dab]T; lactam 4-C)	< 2 µg/mL
CC(C)CCCCC(=O)N[C@@H](CCN)C(=O)N[C@H](C(=O)N[C@@H](CCN)C(=O)N[C@H]1CCNC(=O)[C@H]([C@@H](C)O)NC(=O)[C@H](CCN)NC(=O)[C@H](CCN)NC(=O)[C@H](CC(C)C)NC(=O)[C@@H](Cc2ccccc2)NC(=O)[C@H](CCN)NC1=O)[C@@H](C)O [POLYMYXIN B2] ({Heptanoyl(6-Me)}-[Dab]T[Dab][Dab][Dab][dF]L[Dab][Dab]T; lactam 4-C)	< 2 µg/mL

System: not listed separately
Test: Half life in mouse
Format: ADME, organism-based
Details: in vivo

Compound	half-life
COc1ccc(/C=C/C(=O)NC[C@H]2O[C@H](OC)[C@@H](O)[C@@H](O)[C@@H]2O)cc1OC	5 min
CO[C@H]1O[C@H](CO)[C@@H](O)[C@H](O)[C@@H]1O	0.75 min
CO[C@H]1O[C@H](CNS(=O)(=O)c2c(C)cc(C)cc2C)[C@@H](O)[C@H](O)[C@@H]1O	5 min
CO[C@H]1O[C@H](CNC(=O)/C=C/c2ccccc2)[C@@H](O)[C@H](O)[C@@H]1O	5 min

System: Pseudomonas aeruginosa
Test: Downregulation of c-di-GMP level in Pseudomonas aeruginosa PA14 planktonic cells harboring wspR gene mutation at 50 uM incubated for 24 hrs by HPLC analysis
Format: functional
Details: not given

Compound	Activity
O=c1c2ccccc2[se]n1-c1ccccc1 [EBSELEN]	80%
O=C1c2ccccc2[Se](=O)N1c1ccccc1 (stereo not given)	80%

Molecular target: T2, PA-I galactophilic lectin (Pseudomonas aeruginosa (strain ATCC 15692 / PAO1 / 1C / PRS 101 / LMG12228), UniProt Q05097)
T2 sequence (Q05097 whole entry): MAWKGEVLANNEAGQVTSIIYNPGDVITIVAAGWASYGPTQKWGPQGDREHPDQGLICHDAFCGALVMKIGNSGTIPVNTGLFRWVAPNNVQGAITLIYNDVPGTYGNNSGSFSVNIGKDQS
Test: Binding affinity to Pseudomonas aeruginosa PAO1 LecA assessed as dissociation constant
Details: not given

Compound	pKd
COc1ccc(/C=C/C(=O)NC[C@H]2O[C@H](OC)[C@@H](O)[C@@H](O)[C@@H]2O)cc1OC	4.96
CC[C@H](C)[C@H](NC(=O)[C@H](Cc1cnc[nH]1)NCCCC[C@H](NC(=O)[C@@H](NC(=O)[C@H](CCCCN)NC(=O)[C@H](Cc1ccccc1)NC(=O)[C@H](CCCCNC(=O)[C@H](CC(C)C)NC(=O)[C@@H]1CCCN1C(=O)[C@@H](N)CCCCNC(=O)C[C@@H]1O[C@@H](C)[C@@H](O)[C@@H](O)[C@@H]1O)NC(=O)[C@H](CC(C)C)NC(=O)[C@@H]1CCCN1C(=O)[C@@H](N)CCCCNC(=O)C[C@@H]1O[C@@H](C)[C@@H](O)[C@@H](O)[C@@H]1O)[C@@H](C)CC)C(=O)N[C@H](C(=O)N[C@@H](CCCCN)C(=O)N[C@@H](Cc1ccccc1)C(=O)N[C@@H](CCCCN[C@@H](CC(C)C)C(=O)N1CCC[C@H]1C(=O)N[C@@H](CCCCNC(=O)C[C@@H]1O[C@@H](C)[C@@H](C)[C@@H](C)[C@@H]1O)C(=O)O)C(=O)N[C@@H](CC(C)C)C(=O)N1CCC[C@H]1C(=O)N[C@@H](CCCCNC(=O)C[C@@H]1O[C@@H](C)[C@@H](O)[C@@H](O)[C@@H]1O)C(=O)O)[C@@H](C)CC)C(N)=O	6.85
OC[C@H]1O[C@@H](Sc2ccc3ccccc3c2)[C@H](O)[C@@H](O)[C@H]1O	5.20
CC(=O)N[C@H]1C(O)O[C@H](CO)[C@@H](O[C@@H]2O[C@@H](C)[C@@H](O)[C@@H](O)[C@@H]2O)[C@@H]1O[C@@H]1O[C@H](CO)[C@H](O)[C@H](O)[C@H]1O (stereo not given in full)	6.67
CO[C@H]1O[C@H]([C@@H](O)CNS(=O)(=O)c2c(C)cc(C)cc2C)[C@@H](O)[C@H](O)[C@@H]1O	7.00
C[C@@H]1O[C@H](CO)[C@@H](O)[C@H](O)[C@@H]1O	4.80
CO[C@H]1O[C@H](CNS(=O)(=O)c2c(C)cc(C)cc2C)[C@@H](O)[C@H](O)[C@@H]1O	5.48
COC(=O)c1cn([C@@H]2O[C@H](CO)[C@@H](O[C@@H]3O[C@@H](C)[C@@H](O)[C@@H](O)[C@@H]3O)[C@H](O)[C@H]2NC(C)=O)nn1	6.54
C[C@@H]1O[C@H](C)[C@@H](O)[C@H](O)[C@@H]1O	4.77
N=C(N)NCCC[C@H](NC(=O)COCCOCCNC(=O)[C@H](CCCCNC(=O)[C@@H]1C[C@H](NC(=O)[C@H](Cc2cn(CCNC(=O)c3ccc(S[C@@H]4O[C@H](CO)[C@H](O)[C@H](O)[C@H]4O)cc3)nn2)NC(=O)COc2ccccc2)CN1)NC(=O)[C@@H]1C[C@H](NC(=O)[C@H](Cc2cn(CCNC(=O)c3ccc(S[C@@H]4O[C@H](CO)[C@H](O)[C@H](O)[C@H]4O)cc3)nn2)NC(=O)COc2ccccc2)CN1)C(N)=O	7.09

System: Pseudomonas aeruginosa
Test: Antimicrobial activity against Pseudomonas aeruginosa assessed as reduction in bacterial growth
Format: functional, organism-based
Details: not given

Compound	MIC	IC50
CC(=O)Oc1cccc(C(=O)NCCCC(CCCNC(=O)c2cccc(OC(C)=O)c2OC(C)=O)(CCCNC(=O)c2cccc(OC(C)=O)c2OC(C)=O)NC(=O)CCC(=O)N[C@@H](C(=O)N[C@@H]2C(=O)N3[C@@H]2SC(C)(C)[C@@H]3C(=O)O)c2ccccc2)c1OC(C)=O	0.39 µM	
C=C1NC(=O)[C@@H](C)NC(=O)CNC(=O)[C@H](Cc2c[nH]c3cccc(OC)c23)NC(=O)[C@H](Cc2c[nH]c3ccccc23)NC(=O)c2csc(n2)CNC(=O)CN(C)C1=O (cyclo([Dha][Sar][GlyΨ(Thz)]W[Trp(4-OMe)]G[dA]))		0.8 µg/mL (≈ 0.987 µM)
CCCCCCCCCCCCCB(O)O	1 µM	
C[C@@H](N)C(=O)N[C@H](CCCCN)C(=O)N[C@H](CCCNC(=N)N)C(=O)N[C@H](Cc1c[nH]cn1)C(=O)N[C@H](Cc1c[nH]cn1)C(=O)NCC(=O)N[C@H](Cc1ccc(O)cc1)C(=O)N[C@H](CCCCN)C(=O)N[C@H](CCCNC(=N)N)C(=O)N[C@H](CCCCN)C(=O)N[C@H](Cc1ccccc1)C(=O)N[C@H](Cc1c[nH]cn1)C(N)=O (H-[dA][dK][dR][dH][dH]G[dY][dK][dR][dK][dF][dH]-NH2)	2 µM	
CC(=O)Oc1cccc(C(=O)NCCCC(CCCNC(=O)c2cccc(OC(C)=O)c2OC(C)=O)(CCCNC(=O)c2cccc(OC(C)=O)c2OC(C)=O)NC(=O)CCC(=O)N[C@@H](C(=O)N[C@@H]2C(=O)N3[C@@H]2SC(C)(C)[C@@H]3C(=O)O)c2ccc(O)cc2)c1OC(C)=O	0.39 µM	
CC(C)C[C@H](NC(=O)[C@H](CCCCN)NC(=O)[C@H](CCCCNC(=O)[C@H](CC(C)C)NC(=O)[C@H](CCCCN)NC(=O)[C@H](CCCCNC(=O)[C@H](CC(C)C)NC(=O)[C@H](CCCCN)NC(=O)[C@H](CCCCNC(=O)[C@H](CC(C)C)NC(=O)[C@@H](N)CCCCN)NC(=O)[C@H](CC(C)C)NC(=O)[C@@H](N)CCCCN)NC(=O)[C@H](CC(C)C)NC(=O)[C@H](CCCCN)NC(=O)[C@H](CCCCNC(=O)[C@H](CC(C)C)NC(=O)[C@@H](N)CCCCN)NC(=O)[C@H](CC(C)C)NC(=O)[C@@H](N)CCCCN)NC(=O)[C@H](CC(C)C)NC(=O)[C@H](CCCCN)NC(=O)[C@H](CCCCNC(=O)[C@H](CC(C)C)NC(=O)[C@H](CCCCN)NC(=O)[C@H](CCCCNC(=O)[C@H](CC(C)C)NC(=O)[C@@H](N)CCCCN)NC(=O)[C@H](CC(C)C)NC(=O)[C@@H](N)CCCCN)NC(=O)[C@H](CC(C)C)NC(=O)[C@H](CCCCN)NC(=O)[C@H](CCCCNC(=O)[C@H](CC(C)C)NC(=O)[C@@H](N)CCCCN)NC(=O)[C@H](CC(C)C)NC(=O)[C@@H](N)CCCCN)C(N)=O (I: H-KLK([Leu-Lys])KLKKLKKL-NH2 / II: H-KLK([Leu-Lys])KLKKL / III: H-KLK([Leu-Lys])KL / IV: H-KLK([Leu-Lys])KL; amide I:6-IV:C, I:9-II:C, II:6-III:C)	0.4 µM	
Cc1ccc2c(C)c3c(c(O)c2c1O)C(=O)[C@]1(O)C(=O)C(C(N)=O)=C(O)[C@H](N)[C@@H]1C3	32 µg/mL	
COc1c(NC(=O)c2ccc(NC(=O)c3ccc(NC(=O)[C@H](CC#N)NC(=O)c4ccc(NC(=O)/C(C)=C/c5ccc(O)cc5)cc4)cc3)c(OC)c2O)ccc(C(=O)O)c1O	1 µg/mL	
C=C1NC(=O)[C@@H](C)NC(=O)CNC(=O)[C@H](Cc2c[nH]c3ccccc23)NC(=O)[C@H](Cc2c[nH]c3ccccc23)NC(=O)c2csc(n2)[C@@H](C)NC(=O)CN(C)C1=O		1.4 µg/mL (≈ 1.76 µM)
